Assay results taken from patent US20250375461A1, “IDENTIFICATION OF A NEW POTENT INHIBITOR OF MYCOBACTERIAL GROWTH” (priority 2024, published 2025).
Values after ≈ are worked out from the molar mass of the structure shown. Where two headings read alike, the source gives them in different places.

Key:
M. smegmatis [1] = assay: MIC assay: M. smegmatis with BI.aada; assay type: cell-based; settings: Mycolicibacterium smegmatis
Procedure: FIG. 4, FIG. 5, and FIG. 6 show enlarged views of MIC Assay: M. smegmatis with BI.aada.
(§1) In FIG. 1, […]=0.5×MIC. […] Magnification is 1000×. The compound BI.aada also has an MIC of […] against the gram-negative E. coli WO0153, which has a leaky outer membrane, and no activity against E. coli K12, which has a normal membrane. […] The stubby phenotype is similar to that observed with NAG-thiazoline (lytic transglycosylase inhibitor) with E. coli. In FIG. 3, purple: no growth; pink: bacterial growth; and MIC determined as lowest concentration that inhibits growth: 50 μM.

M. absescus = assay: MIC against M. absescus; assay type: cell-based
M. avium = assay: MIC against M. avium; assay type: cell-based; settings: Mycobacterium avium
E. coli WO0153 [2] = assay: MIC assay: E. coli WO0153 (leaky outer membrane); assay type: cell-based
Procedure: as §1

E. coli K12 = assay: Activity against E. coli K12 (normal membrane); assay type: cell-based
Procedure: as §1

M. smegmatis [3] = assay: Microscopy of M. smegmatis in presence of BI.aada; assay type: cell-based
Procedure: as §1

E. coli WO0153 [4] = assay: Microscopy of E. coli WO0153 in presence of BI.aada; assay type: cell-based
Procedure: as §1

Gram-negative bacteria = settings: cited from earlier work
Bacillus cereus = assay: Resazurin microtiter whole cell assay, MIC, B. cereus; assay type: cell-based
Procedure: Each Ugi reaction was carried out using either propargyl amine or propiolic acid as the alkyne component to provide either propionamides or N-propargyl amides as the diamide products. While Ugi-reactions can sometimes require prolonged reaction times, we identified conditions that reduced the reaction time to 4-5 hours at elevated temperature and in many cases proceeded to completion, enabling use of the Ugi product directly in the next reaction.^49-51 The Ugi-derived terminal alkynes were then subjected to a copper accelerated azide-alkyne coupling reaction using a redox couple of copper powder and copper (II) sulfate. To further facilitate synthesis of the library we simplified the purification of the compounds by using the alkyne building blocks in excess for the copper accelerated azide-alkyne coupling reaction. This ensured complete consumption of the azido sugar 1, and the unreacted alkyne residue could be easily removed using a silica plug after the reaction, eliminating the need for column chromatography. Removal of trace copper salts from the reaction was carried out by incubating the reaction solution with a commercially available copper chelating resin prior to purification using the silica plug. The library of GNTs was screened for its ability to inhibit the growth of a panel of different Gram-positive bacteria. […]

B. cereus = assay: Standard bactericidal assay (colony counts), B. cereus; assay type: cell-based
Procedure: The library was initially screened against all test organisms at a single concentration (250 μM) (ESIt). This high initial concentration was chosen as many soluble derivatives of PG bind to bacterial autolysins with KD values in the high micromolar range.^53 Compounds showing at least 40% inhibition in growth were selected for further investigation. […] We identified two compounds that inhibited the growth of Bacillus cereus and Bacillus subtilis in the micromolar range (FIG. 9). […] Both BI.abcb and BI.fgba were screened in a standard bactericidal assay.^54 Briefly, B. subtilis and B. cereus were grown in either the absence or presence of inhibitor (at the MIC) for 4 hours.
The cells were harvested, washed and subject to serial dilution prior to plating on nutrient broth agar.

E. coli = settings: NAG thiazoline treatment; cited from earlier work

CCCCNC(=O)C(C(C)C)N(CC(c1ccccc1)c1ccccc1)C(=O)c1cn(C2OC(CO)[C@@H](O)C(O)C2NC(C)=O)nn1 (stereo partly drawn) [BI.aada] gave an MIC (M. smegmatis [1]) of 0.05 µM (≈ 0.0325 µg/mL), an MIC (M. absescus) of less than 0.5 µM and an MIC (M. absescus; Feature 15) of less than 0.5 µM. The MIC (M. avium) was less than 0.5 µM, the MIC (E. coli WO0153 [2]; Escherichia coli, WO0153, read-out: MIC determined as lowest concentration that inhibits growth) was 50 µM (≈ 32.5 µg/mL) and the MIC (E. coli WO0153 [2]; Escherichia coli, E. coli WO0153, leaky outer membrane, read-out: MIC) was 70 µM (≈ 45.6 µg/mL). The MIC (E. coli WO0153 [2]; Gram negative E. coli WO0153, Feature 16) was 70 µM (≈ 45.6 µg/mL), the “activity against E. coli K12” value (E. coli K12) was “no activity” and the “phenotype in FIG. 1” value (M. smegmatis [3]; 25 nM=0.5×MIC, magnification 1000×) was “aberrant division occurring along side wall”. The “cell morphology (microscopy)” value (M. smegmatis [3]; M. smegmatis in presence of BI.aada) was “altered cell morphology”, the “cell morphology (microscopy)” value (E. coli WO0153 [4]; E. coli WO0153 in presence of BI.aada) was “altered cell morphology” and the “phenotype in FIG. 2” value (E. coli WO0153 [4]; sub-MIC treated E. coli WO153, 50 µM BI.aada, compared to control) was “clumping phenotype”.

In the case of CC(=O)N[C@H]1[C@H](O[C@H]2C[C@@H](C(=O)NCCS(=O)(=O)O)N[C@@H]2CO)O[C@H](CO)[C@@H](OS(=O)(=O)O)[C@@H]1O [bulgecin A], the “minimum inhibitory concentration in whole cell assays” value (Gram-negative bacteria) is listed as “do not demonstrate a measurable minimum inhibitory concentration”.

In the case of COc1ccc(C(C(=O)NCc2ccccc2)N(Cc2ccccc2)C(=O)c2cn(C3OC(CO)C(O)C(O)C3NC(C)=O)nn2)cc1 (stereo not drawn) [BI.abcb], the MIC (Bacillus cereus) is reported as 60 µM (≈ 39.5 µg/mL), the “nature of antibacterial action” value (B. cereus; colony counts similar to controls) is reported as “bacteriostatic” and the “Colony counts for growth in the presence of compound” value (B. cereus; inhibitor at the MIC, 4 hours) is reported as 7.00±1.70×10^8 cfu mL^−1.

For CC1=N[C@@H]2[C@@H](O)[C@H](O)[C@@H](CO)O[C@@H]2S1 [NAG thiazoline], the “minimum inhibitory concentration in whole cell assays” value (Gram-negative bacteria) is listed as “do not demonstrate a measurable minimum inhibitory concentration” and the “effect on E. coli cells” value (E. coli) is listed as “formation of shorter cells without affecting cell viability”.
